Assay results published in patent publication US10336788B2, “Inhibition of cardiac fibrosis in myocardial infarction” (Moerae Matrix, Inc., priority 2014, dated 2019).
No end group written: not given here.

Assays:
H9C2 cells = assay: Caspase 3/7 activity in H9C2 cells challenged with 1% hypoxia; type: cell-based, rat; details: 100 μM, 16 and 24 hours
Method: (§1) H9C2 is a myoblast cell line derived from rat myocardium obtained from ATCC® (CRL-1446, ATCC, Manassas, Va.) and cultured according to the recommended protocols. Briefly, cells were maintained at 37° C. with 5% CO2 in DMEM supplemented with 10% fetal bovine serum and antibiotics (100 U/ml penicillin, […] streptomycin) and split at a ratio of 1:4 using 0.05% trypsin every 36 hours. […]
(§2) Cells were rinsed in PMS and grown in DMEM (cat. #11966-025, Gibco) for 2 hours prior to initiating hypoxia (simulated ischemia). […] Three different time points were adopted for each of the three cell lines according to the severity of cell death under hypoxia determined by LDH release: for H9C2 cell line: 8 hr; 16 hr; 24 hr; for HL-1 cell line: 4 hr; 8 hr; 12 hr; for cardiac fibroblast cell line: 16 hr; 32 hr; 48 hr.
(§3) Cell death was first determined using an LDH release assay (cat. #630117, Clontech), according to the manufacturer's instructions. […] Caspase 3/7 activity was next determined using a commercial Caspase 3/7 activity kit (Cat. #G8091, Promega, Madison, Wis. 53711) in a 384 well plate (Cat. #781903, Greiner bio-one) according to the manufacturer's instructions. […] The resulting cell lysates (25 μl, with 0.6 ug total protein) and Caspase-Glo 3/7 Reagent were added to each well in a 1:1 ratio and the luminescence was read (CLARIOstar, BMG LABTECH GmbH). […]

HL1 cells = assay: Caspase 3/7 activity in HL1 cells challenged with 1% hypoxia; type: cell-based, mouse; details: 100 μM, 12 hours
Method: as §1, §2, §3

MK2 = assay: Immunoblot analysis of MK2 activity (HNRNPA0, total MK2, p-MK2) in HL1 cells; type: cell-based, mouse
Method: Cells were rinsed in PMS and grown in DMEM (cat. #11966-025, Gibco) for 2 hours prior to initiating hypoxia (simulated ischemia). Hypoxia was induced by placing cells in a hypoxia chamber ([…] 150i, Thermo Scientific) in a mixture of 5% CO2/95% N2 to attain a 1% oxygen concentration, according to the manufacturer's instruction. […] The MMI-0100 peptide was added to the cells at the start of the ischemia time. Cells were cultured in 12 well plates. At the time of performing the experiments, all cultures were approximately 70-90% confluent. Three different time points were adopted for each of the three cell lines according to the severity of cell death under hypoxia determined by LDH release: for H9C2 cell line: 8 hr; 16 hr; 24 hr; for HL-1 cell line: 4 hr; 8 hr; 12 hr; for cardiac fibroblast cell line: 16 hr; 32 hr; 48 hr.
The left over cell lysates from the Caspase activity assay were used for the Western blots. […] After blocking with recommended blocking reagents for 1 h at the room temperature, the membranes were incubated overnight at 4° C. with primary antibodies in TBS-T, and then incubated with secondary antibodies conjugated with HRP in TBS-T. HNRNPA0, MAPK2, and phospho-MAPK2 proteins were detected using anti-HNRNPA0 (cat. #HPA036569, 1:1000, Sigma-Aldrich), anti-MAPKAPK2 (cat. #SAB4300553, Sigma-Aldrich), and anti-phospho-MAPKAPK2 (cat. #SAB4300241, 1:1000, Sigma-Aldrich). […]

[1] = system: 40 non-kinase enzyme assays, including phosphatases and proteases; assay: Panel of 40 non-kinase enzyme assays; type: biochemical; details: 100 μM; data not shown
mouse vein graft model = details: Muto et al. 2012; cited from earlier work

## YARAAARQARAKALARQLGVAA [MMI-0100]
H9C2 cells
  caspase 3/7 activity: inhibited
HL1 cells
  caspase 3/7 activity: inhibited
MK2; 100 μM, 4 and 8 hours after induction by hypoxia
  HNRNPA0 protein expression: inhibited
MK2; 20 or 100 μM, 1% hypoxia
  total MK2 and p-MK2 protein levels: not changed
[1]
  interaction at non-kinase enzyme targets (significant if greater than 50% inhibition of activity): No significant interaction
Mouse vein graft model
  inflammation and fibrosis in intimal hyperplasia: inhibits inflammation and fibrosis
